The test deals with T1, PrP^C (cellular prion protein) (Mus musculus, UniProt P04925).
T1 construct: gene Prnp
In kind it is binding.

T1 sequence (P04925 23-230 limits assumed): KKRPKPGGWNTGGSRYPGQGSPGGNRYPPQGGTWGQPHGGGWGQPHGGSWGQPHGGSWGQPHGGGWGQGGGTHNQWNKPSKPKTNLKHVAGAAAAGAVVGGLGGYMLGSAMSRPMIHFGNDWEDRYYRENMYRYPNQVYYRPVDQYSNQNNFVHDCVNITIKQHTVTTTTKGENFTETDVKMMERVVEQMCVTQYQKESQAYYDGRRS

On to `C[n+]1ccc(C2=C3C=CC(=N3)C(c3cc[n+](C)cc3)=c3ccc4[n]3[Fe+][n]3c2ccc3C(c2cc[n+](C)cc2)=C2C=CC(=N2)C=4c2cc[n+](C)cc2)cc1` [Fe(III)-TMPyP], for which the Kd (in general, the constant that tells how readily two partners part at equilibrium) came out at 1.21 µM.

(Values after PMC4791597 (Scientific Reports, 2016).)
